Experimental findings from patent publication US12318452B2, “Degraders of WEE1 kinase” (DANA-FARBER CANCER INSTITUTE, INC., priority 2018, dated 2025) are described below.

Experiment [1] addresses T1, Wee1 (Homo sapiens, UniProt P30291). The experiment is described as follows: LanthaScreen FRET-based biochemical binding assay for Wee1. To be noted: LanthaScreen Binding activity assay; average of two replicates ± SD. The method, then:
LanthaScreen™ assays were conducted for Wee1 in a 10-point dose response as performed in the commercial assay service by Life Technologies™. Z′-LYTE™ assays were conducted for PLK1 as performed in the commercial assay service by Life Technologies™ in a 10-point dose response using Km ATP concentrations.
Background: In TR-FRET formats the signal depends on donor and acceptor labels being close together.

Another experiment has as its system MOLT4 cells. As to the kind of experiment: Cell cycle analysis by propidium iodide staining. Format: cell-based. As to the method:
MOLT4 cells were plated at 1.5 million cells per well in a 6-well plate, with 3 mL of media per well. Immediately after plating, cells were treated with the indicated concentrations of the indicated compound. At the indicated time points, cells were collected by transferring each well to a 15 mL conical, centrifuging (1000 rpm for 3 min), and then washing the cell pellet 3× with cold PBS. Cell pellets were then fixed with 1 mL cold 80% ethanol in PBS at 4° C. overnight. The cell pellets were then washed by adding 1 mL of PBS and then centrifuging (1500 rpm for 5 minutes), followed by aspiration of the PBS/ethanol mix. Cells were resuspended in cell cycle staining solution (100 μg/mL of RNAse A (Roche, 10109169001) and 50 μg/mL propidium iodide (Life Technologies™, P1304MP), diluted in PBS, and incubated for 10 minutes at room temperature. Cell cycle data was acquired by flow cytometry on a Guava® easyCyte™ flow cytometer (Millipore™) using the InCyte™ software. Data was analyzed using FlowJo®. N=3 biological replicates were used for each treatment condition.

In experiment [2] the test system is MOLT4 cells (parental, wild type). As to the kind of experiment: CellTiter-Glo cell viability, 72 hours. It counts as cell-based. As to conditions: Homo sapiens, MOLT-4, 72 hours, read-out: Antiproliferative IC50. As to the method: The indicated cell lines were plated in flat bottom 384-well plates (Corning® cat #3570). MOLT4 cells were plated at a density of 3,000 cells per well in 50 μL media, while OVCAR8, COV362, and Kuramochi cells were plated at a density of 750 cells per well in 50 μL media. Cells were treated the next day (except for MOLT4 cells, which were treated the same day as plating) with 0.1 μL of the indicated compounds in a four-fold dilution series using the Janus pinner. Cells were incubated with compounds for 72 hours at 37° C. 5% CO2. Anti-proliferative effects were then assessed by CellTiter-Glo® Luminescent Cell Viability Assay (Promega™ cat #G7570) according to the manufacturer's standards, measuring luminescence using an EnVision® plate-reader. IC50 values were determined using a non-linear regression curve fit in GraphPad Prism 8. N=4 biological replicates were used for each treatment condition.
MOLT4 cells were plated in a 384-well plate at 5,000 cells per well in 50 μL media (RPMI+10% FBS+1% Penn/Strep) and treated with 0.1 μL of the candidate compounds in four-fold dilution series using the Janus pinner. Cells were incubated with compounds for 72 hours at 37° C. 5% CO2. Anti-proliferative effects of these compounds were assessed 72 hours after compound addition using CellTiter-Glo® (Promega, cat #G7571). All proliferation assays were performed in biological quadruplicate. […] Effects upon cell viability for compound 13 in the MOLT4 WT cells are therefore likely driven in part by Wee1 inhibition, and in part by CRBN-mediated Wee1 degradation. […] Degradation of Wee1 with compound 21 was mediated by VHL.
(In general: Cellular ATP, detected with luciferase, serves as a proxy for viable cell number.)

Experiment [3] has as its system 300 suspension and hematopoietic cancer cell lines. The experiment is described as follows: PRISM pooled cytotoxicity assay. Format: cell-based.
The test system of the next experiment is OVCAR8 cells. The experiment is described as follows: Synergy experiment, CellTiter-Glo co-treatment for 72 hours. It counts as cell-based. To be noted: 72-hr co-treatment with Olaparib.
The target of experiment [4] is T1, Wee1. As to the kind of experiment: Cellular degradation of Wee1 by immunoblot, 6-hour treatment of MOLT4 cells. It counts as cell-based. The arrangement: endogenous in cells; host or cells: MOLT4 (wild type; CRBN-/- as control). To be noted: for Wee1 degradation / percent Wee1 degradation at 1 µM: MOLT4 cells; for Wee1 degradation: immunoblot; for percent Wee1 degradation at 1 µM: MOLT-4, 1 μM, approximated by immunoblot, read-out: Extent of Degradation of Wee1. As to the method: General Protocol: HT-29, MOLT4 wild type (WT) or CRBN^-/- cells were plated in a 6 well plate and treated for 6 hours with the indicated concentrations of the inventive compounds and control. HT-29 cells were cultured in McCoy's Media supplemented with 10% FBS and 1% Penicillin/Streptomycin. MOLT4 WT and CRBN^-/- cells were cultured in Roswell Park Memorial Institute (RPMI) medium supplemented with 10% FBS and 1% Penicillin/Streptomycin. Mycoplasma testing was performed every month and all lines were negative. Immunoblotting: Cells were washed with phosphate-buffered saline (PBS) and then lysed using radioimmunoprecipitation assay (RIPA) buffer supplemented with protease and phosphatase inhibitor cocktail (Roche) on ice for 15 minutes. The lysates were centrifuged at 14,000 rpm for 15 minutes at 4° C. and protein was quantified by bicinchoninic acid (BCA) assay (PierceTM). Primary antibodies used include: Wee1 ([…]) (Cell Signaling Technology®, 13084S), polo-like kinase 1 (PLK1) (Thermo Fisher Scientific, 37-7000), phosphor-cdc2 (Y15) (10A11) (Cell Signaling Technology®, […]), phospho-histone H3 ([…]) (Cell Signaling Technology®, […]), Ikaros ([…]) (Cell Signaling Technology®, 14859S), Aiolos ([…]) (Cell Signaling Technology®, 15103), casein kinase 1 alpha (Abcam®, 108296), β-actin (Cell Signaling Technology®, 8H10D10). FIG. 2A is an immunoblot showing that compound 13 degraded Wee1 after a 6-hour treatment in MOLT4 cells, and induced the downstream changes expected from Wee1 loss-including a decrease in phosphorylated cyclin-dependent kinase 1 (pCDK1) (Y15) and an increase in pH 3. […] Degradation of Wee1 by compound 13 was rescued in MOLT4 CRBN^-/- cells. MOLT4 WT and CRBN^-/- cells were plated in a 6-well plate at 2.25 million cells per well in 3 mL media (RPMI+10% FBS+1% Penn/Strep). After treatment with the indicated concentrations of candidate compounds, cells were incubated for 6 hours at 37° C. 5% CO2. To harvest, the cells were washed 1× with cold PBS, then collected by centrifugation. Cell pellets were lysed in RIPA buffer with protease and phosphatase inhibitors (Roche). Lysates were clarified by centrifugation, and protein concentrations were normalized using a BCA assay (Thermo ScientificTM). The samples were diluted with 4×LDS+10% β-mercaptoethanol, and were boiled at 95° C. for 5 minutes. Proteins of interest were then assessed by western blotting. […] The experimental protocol was the same as in Example 28.
A general note: A western blot detects proteins with antibodies after separation by electrophoresis.

Bounds are passed on as bounds.

T1 sequence (P30291 whole entry): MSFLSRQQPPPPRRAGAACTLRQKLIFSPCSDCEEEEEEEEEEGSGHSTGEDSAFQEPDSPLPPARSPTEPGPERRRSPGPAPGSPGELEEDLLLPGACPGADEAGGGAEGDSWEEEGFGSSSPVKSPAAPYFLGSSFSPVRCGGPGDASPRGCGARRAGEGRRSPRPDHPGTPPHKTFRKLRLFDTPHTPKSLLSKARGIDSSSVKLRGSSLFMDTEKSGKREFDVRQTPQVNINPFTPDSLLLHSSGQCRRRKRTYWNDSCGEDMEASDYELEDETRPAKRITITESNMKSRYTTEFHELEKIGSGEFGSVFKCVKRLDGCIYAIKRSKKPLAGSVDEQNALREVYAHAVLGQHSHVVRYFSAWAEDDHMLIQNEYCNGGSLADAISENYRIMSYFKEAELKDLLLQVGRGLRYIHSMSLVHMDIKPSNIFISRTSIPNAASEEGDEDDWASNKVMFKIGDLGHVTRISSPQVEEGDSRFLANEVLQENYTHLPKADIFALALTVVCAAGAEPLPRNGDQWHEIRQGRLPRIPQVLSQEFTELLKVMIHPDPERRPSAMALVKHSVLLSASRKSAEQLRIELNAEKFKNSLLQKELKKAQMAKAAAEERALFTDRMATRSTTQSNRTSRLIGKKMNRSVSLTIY

`C=CCn1c(=O)c2cnc(Nc3ccc(N4CCN(CCCNc5cccc6c5C(=O)N(C5CCC(=O)N(C)C5=O)C6=O)CC4)cc3)nc2n1-c1cccc(C(C)(C)O)n1` (centres unmarked) [Compound 20, 4-((3-(4-(4-((2-allyl-1-(6-(2-hydroxypropan-2-yl)pyridin-2-yl)-3-oxo-2,3-dihydro-1H-pyrazolo[3,4-d]pyrimidin-6-yl)amino)phenyl)piperazin-1-yl)propyl)amino)-2-(1-methyl-2,6-dioxopiperidin-3-yl)isoindoline-1,3-dione] had an IC50 on Wee1 [1] of 7.38 ± 0.47 nM. In addition, the “Effect on the cell cycle” value with MOLT4 cells (100 nM, 24-hr, MOLT4 cells) is reported as “did not appreciably affect the cell cycle”. The IC50 in experiment [2] was 4560 nM. Further, in experiment [3], the “Potency in PRISM panel relative to compound 13” value was “uniformly less potent”. Also, the “Synergy with Olaparib” value in the experiment on OVCAR8 cells was “less synergistic activity”. Also, on Wee1 [4], the Wee1 degradation result is “did not degrade Wee1” and the percent Wee1 degradation at 1 µM was < 25%.

Take `C=CCn1c(=O)c2cnc(Nc3ccc(N4CCN(CCCNc5cccc6c5C(=O)N(C5CCC(=O)NC5=O)C6=O)CC4)cc3)nc2n1-c1cccc(C(C)(C)O)n1` (centres unmarked) [Compound 13, 4-((3-(4-(4-((2-allyl-1-(6-(2-hydroxypropan-2-yl)pyridin-2-yl)-3-oxo-2,3-dihydro-1H-pyrazolo[3,4-d]pyrimidin-6-yl)amino)phenyl)piperazin-1-yl)propyl)amino)-2-(2,6-dioxopiperidin-3-yl)isoindoline-1,3-dione]: the IC50 at Wee1 [1] was 3.58 ± 0.36 nM; in experiment [2], 390 nM; in experiment [3] (almost all of the lines tested, data not shown, read-out: IC50 values in PRISM panel) it was < 1000 nM. The compound also registered a G2-M cells in the experiment with MOLT4 cells (100 nM, 24-hr treatment, MOLT4 cells, control 19%) of 34%. Also, the “Cell cycle effects in CRBN−/− cells” value with MOLT4 cells (CRBN−/− MOLT4 cells, 24 hours) is “absent”. For the same compound, in the experiment with MOLT4 cells (MOLT4 cells), the “Fold lower doses than AZD1775 inducing premature mitotic entry” value is 10 fold. In the experiment with OVCAR8 cells, the “Synergy with Olaparib” value was “synergized with Olaparib”. Further, at Wee1 [4] (MOLT4 CRBN−/− cells), the “Wee1 degradation in CRBN−/− cells” value is “rescued”. The Wee1 degradation entry at Wee1 [4] is “degraded Wee1”. For the same compound, the percent Wee1 degradation at 1 µM at Wee1 [4] was > 50%.

A word on the IC50: it is the concentration needed to halve the response being measured.
